Experimental data published in patent publication US20200171001A1, “COMBINATION THERAPY WITH 2,3-DIHYDRO-ISOINDOLE-1-ONE COMPOUNDS AND METHODS FOR TREATING PATIENTS WITH VARIOUS MUTATIONS” (Aptose Biosciences Inc., priority 2018, published 2020).

What was measured:
[1] = system: malignant bone marrow or peripheral blood cells from AML patients; assay: Ex vivo drug sensitivity (MTS cell viability, IC50 and AUC) on freshly isolated primary AML patient samples, association with somatic mutations; assay type: cell-based, human; settings: for Effectiveness (AUC of drug sensitivity) against ASXL1 mutant cells compared with wild type: ASXL1 mutant vs wild type AML cells, FIG. 5; for Effectiveness (AUC of drug sensitivity) against SRSF2 mutant cells compared with wild type: SRSF2 mutant vs wild type AML cells; for Sensitivity of patient samples with FLT3-ITD mutations as compared to wild-type: AML patient samples with FLT3-ITD mutations vs WT, n=118 patients; for Sensitivity of patient samples with FLT3-ITD mutations as compared to wild-type / Sensitivity of patient samples with IDH1 mutants relative to WT: FIG. 1, FIG. 2; for Sensitivity of patient samples with IDH1 mutants relative to WT: AML patient samples with IDH1 mutations vs WT
Experimental: For Genomics Analysis examples 2-4 below, studies were performed according to published procedures [Tyner, J. W., Tognon, C. E., Bottomly, D. et al. Functional genomic landscape of acute myeloid leukaemia. Nature 562, 526-531 (2018) doi:10.1038/s41586-018-0623-z; Kurtz, S. E., Eide, C. […] PNAS Sep. 5, 2017 114 (36) 7554-7563], which are incorporated by reference in their entirety herein.
All patient samples were analyzed for clinical characteristics and drug sensitivity. AML, CLL, ALL and MDS/MPN and other patient samples were analyzed with respect to expanded, disease-specific panels of clinical, prognostic, genetic, cytogenetic, and surface antigen characteristics obtained from patient electronic medical records. Genetic characterization of AML samples included results of a clinical deep-sequencing panel of genes commonly mutated in hematologic malignancies (GeneTrails panel from Knight Diagnostic Laboratories, OHSU; Foundation Medicine reports from UT Southwestern).
Compound 7 and/or venetoclax were prepared in a well in a seven-point concentration series. Similar plates were prepared with the 48 indicated pairwise inhibitor combinations in seven-point fixed molar concentration series identical to those used for single agents. The final concentration of DMSO was ≤0.1% in all wells, and all sets of single-agent and combination destination plates were stored at −20° C. and thawed immediately before use. Primary mononuclear cells were plated across single-agent and combination inhibitor panels within 24 h of collection. Cells were seeded into assay plates at 10,000 cells per well in RPMI 1640 media supplemented with FBS (10%), L-glutamine, penicillin/streptomycin, and β-mercaptoethanol (10^−4 M). After 3 d of culture at 37° C. in 5% CO2, MTS reagent (CellTiter96 AQueous One; Promega) was added, optical density was measured at 490 nm, and raw absorbance values were adjusted to a reference blank value and then used to determine cell viability (normalized to untreated control wells).
Normalized viability values at each dose of a seven-point dilution series for Compound 7, venetoclax or combinations of the two compounds were analyzed for each of numerous primary leukemia samples. Dose concentrations were log 10-transformed, and a probit regression curve was fit to each seven-point drug sensitivity profile by using maximum-likelihood estimation for the intercept and slope. This parametric model was chosen over a polynomial because the probit's monotonic shape reflects a dose-response curve typically seen in samples incubated with cytotoxic or inhibitory agents. Normalized viability values greater than 100%, indicating higher cell viability than the average viability across control wells on a given plate, were truncated to 100% to produce a percentage response variable amenable to probit modeling. From the fitted probit curve for each sample/drug pairing, the IC50 was defined as the lowest concentration to achieve 50% predicted viability and the AUC was computed by integration of the curve height across the tested dose range. If the predicted cell viability (i.e., probit curve height) was ≤50% at the lowest tested dose or >50% across the entire dose range, the IC50 was designated as the lowest dose or highest dose, respectively. For sensitivity profiles with 100% normalized viability at all seven dose points, the IC50 and AUC were designated as the highest tested dose and the maximum possible AUC, respectively. For sensitivity profiles with 0% viability at all seven dose points, the IC50 and AUC were designated as the lowest tested dose and a value (0.5) just below the minimum probit-derived AUC, respectively.
Genomics analysis of Compound 7 was performed by testing the association of somatic mutations and expression data with Compound 7 response on freshly harvested malignant bone marrow or peripheral blood cells from AML patients. […]

[2] = system: B-cell malignant cell lines (e.g. AML cell lines); assay: Potency against B-cell malignant cell lines compared with conventional IDH1 therapeutic agents; assay type: cell-based

Compound	Effectiveness (AUC of drug sensitivity) against ASXL1 mutant cells compared with wild type ([1]; 72-hour culture)	Effectiveness (AUC of drug sensitivity) against SRSF2 mutant cells compared with wild type ([1]; 72-hour culture, FIG. 4)	Potency relative to conventional IDH1 therapeutic agents (e.g., Tibsovo) [2]	Sensitivity of patient samples with FLT3-ITD mutations as compared to wild-type [1]	Sensitivity of patient samples with FLT3-ITD mutations as compared to wild-type ([1]; listed as compound 7)	Sensitivity of patient samples with IDH1 R132 residue mutants relative to WT ([1]; AML patient samples with IDH1 R132 residue mutants (n=6), on average, vs WT)	Sensitivity of patient samples with IDH1 mutants relative to WT [1]	Sensitivity of patient samples with IDH1 mutants relative to WT ([1]; listed as compound 7)	Effectiveness (AUC of drug sensitivity) in AML cells with IDH mutations compared to IDH wild type ([1]; IDH mutant vs IDH wild type AML cells, 72-hour culture, FIG. 4)	Effectiveness (AUC of drug sensitivity) in AML cells with TP53 mutations ([1]; TP53 mutant vs TP53 wild type AML cells, 72-hour culture, FIG. 3)	IC50 towards killing cells in AML patient bone marrow samples with IDH1 mutations ([1]; all patient samples with IDH1 mutations, FIG. 2)
CC1(COc2ccc3c(c2)ncn3-c2ccc3cccc(N4CCC(N)CC4)c3n2)COC1 [crenolanib, reference compound]	appear resistant	appear resistant									
Cc1cnc(-c2ccc(-c3ccc(NC(=O)Nc4c(F)cc(F)cc4F)cc3F)c3c2C(=O)NC3)[nH]1 [Compound 7, 1-{3-fluoro-4-[7-(5-methyl-1H-imidazol-2-yl)-1-oxo-2,3-dihydro-1H-isoindol-4-yl]-phenyl}-3-(2,4,6-trifluorophenyl)urea]	just as effective	just as effective	more potent	highly sensitive	more sensitive	significantly greater sensitivity	highly sensitive	greater sensitivity	substantially more effective	retains effectiveness	particular low
